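Protocol summary: plate cells (96-well), add compound at 5 concentrations, incubate 48 h, interpolate endpoints linearly. Abbreviation: GI50, concentration required for 50% inhibition of growth.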 Calls of active or inactive are those of the source. No stated cut-off is given here; in the data, active = GI50 up to about 1.1 µM and inactive = higher.
Assays:
Test in all cases: NCI-60 cell line screen, 48 h
A498 = test system: A498
A549 = test system: A549
ACHN = test system: ACHN
HL-60 = test system: HL-60
HT-29 = test system: HT-29
IGROV-1 = test system: IGROV-1
K562 = test system: K562
LOX IMVI = test system: LOX IMVI
MDA-MB-435 = test system: MDA-MB-435
Malme-3M = test system: Malme-3M
NCI-H226 = test system: NCI-H226
NCI-H522 = test system: NCI-H522
PC-3 = test system: PC-3
SF-539 = test system: SF-539
SK-MEL-28 = test system: SK-MEL-28
SK-MEL-2 = test system: SK-MEL-2
SN12C = test system: SN12C
SW-620 = test system: SW-620
TK-10 = test system: TK-10
UACC-62 = test system: UACC-62

Structure (SMILES) | GI50 (A498) | GI50 (A549) | GI50 (ACHN) | GI50 (HL-60) | GI50 (HT-29) | GI50 (IGROV-1) | GI50 (K562) | GI50 (LOX IMVI) | GI50 (MDA-MB-435) | GI50 (Malme-3M) | GI50 (NCI-H226) | GI50 (NCI-H522) | GI50 (PC-3) | GI50 (SF-539) | GI50 (SK-MEL-28) | GI50 (SK-MEL-2) | GI50 (SN12C) | GI50 (SW-620) | GI50 (TK-10) | GI50 (UACC-62)
S=c1sc2c(s1)SCCCCSCCCCSc1sc(=S)sc1SCCCCSCCCCS2 | > 100 µM (inactive) | > 100 µM (inactive) | > 100 µM (inactive) | > 100 µM (inactive) | > 100 µM (inactive) | > 100 µM (inactive) | > 100 µM (inactive) | > 100 µM (inactive) | > 100 µM (inactive) | > 100 µM (inactive) | > 100 µM (inactive) | > 100 µM (inactive) | > 100 µM (inactive) | > 100 µM (inactive) | > 100 µM (inactive) | > 100 µM (inactive) | > 100 µM (inactive) | > 100 µM (inactive) | > 100 µM (inactive) | > 100 µM (inactive)
O=C1C=CC(=O)c2c1ccc1c3ccccc3n(CCCCCn3c4ccccc4c4ccc5c(c43)C(=O)C=CC5=O)c21 | 54.5 µM (inactive) | > 100 µM (inactive) | 15.3 µM (inactive) | 0.875 µM (active) | 32 µM (inactive) | 14.7 µM (inactive) | 2.06 µM (inactive) | 16 µM (inactive) | 22 µM (inactive) | 16.7 µM (inactive) | > 100 µM (inactive) | 2.02 µM (inactive) | 17.1 µM (inactive) | 16.1 µM (inactive) | 16.4 µM (inactive) | 23.3 µM (inactive) | 18.4 µM (inactive) | 8.17 µM (inactive) | 12.4 µM (inactive) | 25.7 µM (inactive)
Nc1nc(-c2cccc([N+](=O)[O-])c2)cc(-c2cc(-c3cccc([N+](=O)[O-])c3)nc(N)n2)n1 | > 100 µM (inactive) | > 100 µM (inactive) | > 100 µM (inactive) | > 100 µM (inactive) | > 100 µM (inactive) | > 100 µM (inactive) | > 100 µM (inactive) | > 100 µM (inactive) | > 100 µM (inactive) | > 100 µM (inactive) | > 100 µM (inactive) | > 100 µM (inactive) | > 100 µM (inactive) | > 100 µM (inactive) | > 100 µM (inactive) | > 100 µM (inactive) | > 100 µM (inactive) | > 100 µM (inactive) | > 100 µM (inactive) | > 100 µM (inactive)
CC(C)N(Cc1ccccc1)S(=O)(=O)c1nc(C(C)(C)C)n[nH]1 | > 100 µM (inactive) | > 100 µM (inactive) | > 100 µM (inactive) | 46.1 µM (inactive) | > 100 µM (inactive) | > 100 µM (inactive) | > 100 µM (inactive) | > 100 µM (inactive) | > 100 µM (inactive) | > 100 µM (inactive) | > 100 µM (inactive) | > 100 µM (inactive) | > 100 µM (inactive) | > 100 µM (inactive) | > 100 µM (inactive) | > 100 µM (inactive) | > 100 µM (inactive) | > 100 µM (inactive) | > 100 µM (inactive) | > 100 µM (inactive)
CN(C)c1ccc(/N=C2/C=CC(=C(C#N)C#N)c3ccccc32)cc1 | 0.392 µM (active) | 0.436 µM (active) | 0.485 µM (active) | 0.0541 µM (active) | 0.177 µM (active) | 0.222 µM (active) | 0.0723 µM (active) | 0.282 µM (active) | 0.0391 µM (active) | 0.625 µM (active) | 0.236 µM (active) | 0.0555 µM (active) | 0.183 µM (active) | 0.208 µM (active) | 0.52 µM (active) | 0.337 µM (active) | 0.332 µM (active) | 0.114 µM (active) | 1.82 µM (inactive) | 0.386 µM (active)
Cc1c2ccccc2c(CSC(=N)N)c2ccccc12 | 0.19 µM (active) | 0.216 µM (active) | 0.0728 µM (active) | 0.111 µM (active) | 0.163 µM (active) | 0.312 µM (active) | 0.2 µM (active) | 0.202 µM (active) | 0.181 µM (active) | 0.149 µM (active) | 0.247 µM (active) | 0.0348 µM (active) | 0.23 µM (active) | 0.118 µM (active) | 0.27 µM (active) | 0.192 µM (active) | 0.152 µM (active) | 0.121 µM (active) | 0.222 µM (active) | 0.181 µM (active)

Reference: ChEMBL document CHEMBL1201862, “PubChem BioAssay data set” (2004)
